Species on record: Rattus norvegicus
Assay: Open TG-GATES - Regimen: Single
Type: toxicity, organism-based, Sprague-Dawley
Design: regimen Single, gender Male, age 6 weeks
Conditions: in vivo, po, 1000 mg/kg, route gavage, dose level High; for APTT / Bas / Eos / Fbg / Hb / Ht / Lym / MCH / MCHC / MCV / Mono / Neu / PT / Plat / RBC / Ret / WBC: tissue Blood; for KIDNEY_L / KIDNEY_R / KIDNEY_TOTAL: tissue Kidney; for LIVER: tissue Liver; for A/G / ALP / ALT / AST / BUN / CRE / Ca / Cl / DBIL / GLC / IP / K / LDH / Na / PL / RALB / TBIL / TC / TG / TP / gamma-GTP: tissue Plasma

CCOC(=O)CCC(=O)O[C@H]1[C@H](O[C@@H]2[C@@H](C)[C@H](O[C@H]3C[C@@](C)(OC)[C@@H](O)[C@H](C)O3)[C@@H](C)C(=O)O[C@H](CC)[C@@](C)(O)[C@H](O)[C@@H](C)C(=O)[C@H](C)C[C@@]2(C)O)O[C@H](C)C[C@@H]1N(C)C [ERYTHROMYCIN ETHYLSUCCINATE] gave a TERMINAL_BW (3 h) of 217 g, an APTT (3 h) of 22.2 s and a Bas (3 h) of 0%. For the same molecule, the Eos (3 h) was 1%, the Fbg (3 h) was 305.8 mg/dL and the Hb (3 h) was 13 g/dL. It also gave a Ht (3 h) of 39.2%, a Lym (3 h) of 74.6% and an MCH (3 h) of 20.5 pg. For the same molecule, the MCHC (3 h) was 33.1%, the MCV (3 h) was 61.8 fL and the Mono (3 h) was 2.8%. The Neu (3 h) was 20%, the PT (3 h) was 15.4 s and the Plat (3 h) was 131 x10_4/uL. For the same molecule, the RBC (3 h) was 635.4 x10_4/ul, the Ret (3 h) was 8.2% and the WBC (3 h) was 77.4 x10_2/uL. It also gave a KIDNEY_L (3 h) of 1 g, a KIDNEY_R (3 h) of 1 g and a KIDNEY_TOTAL (3 h) of 1.9 g. For the same molecule, the LIVER (3 h) was 9.6 g, the A/G (3 h) was 1.2 and the ALP (3 h) was 1535.2 IU/L. It also gave an ALT (3 h) of 46 IU/L, an AST (3 h) of 76.6 IU/L and a BUN (3 h) of 11.8 mg/dL. The CRE (3 h) was 0.1 mg/dL, the Ca (3 h) was 10.4 mg/dL and the Cl (3 h) was 102.4 meq/L. It also gave a DBIL (3 h) of 0.014 mg/dL, a GLC (3 h) of 181.2 mg/dL and an IP (3 h) of 9.7 mg/dL. It also gave a K (3 h) of 3.7 meq/L, an LDH (3 h) of 158.4 IU/L and a Na (3 h) of 138 meq/L. The PL (3 h) was 143.8 mg/dL, the RALB (3 h) was 2.9 g/dL and the TBIL (3 h) was 0.05 mg/dL. For the same molecule, the TC (3 h) was 74.2 mg/dL, the TG (3 h) was 40 mg/dL and the TP (3 h) was 5.4 g/dL. The gamma-GTP (3 h) was 1 IU/L, the TERMINAL_BW (6 h) was 219.9 g and the APTT (6 h) was 23.4 s. For the same molecule, the Bas (6 h) was 0%, the Eos (6 h) was 1% and the Fbg (6 h) was 315 mg/dL. For the same molecule, the Hb (6 h) was 13.3 g/dL, the Ht (6 h) was 40.7% and the Lym (6 h) was 73.2%. It also gave an MCH (6 h) of 20.6 pg, an MCHC (6 h) of 32.8% and an MCV (6 h) of 62.9 fL. It also gave a Mono (6 h) of 3.2%, a Neu (6 h) of 21% and a PT (6 h) of 15.7 s. For the same molecule, the Plat (6 h) was 134.9 x10_4/uL, the RBC (6 h) was 647.6 x10_4/ul and the Ret (6 h) was 7.9%. For the same molecule, the WBC (6 h) was 93.4 x10_2/uL, the KIDNEY_L (6 h) was 1 g and the KIDNEY_R (6 h) was 1.1 g. It also gave a KIDNEY_TOTAL (6 h) of 2.1 g, an LIVER (6 h) of 9.1 g and an A/G (6 h) of 1.2. For the same molecule, the ALP (6 h) was 1632.2 IU/L, the ALT (6 h) was 45.8 IU/L and the AST (6 h) was 79.8 IU/L. For the same molecule, the BUN (6 h) was 10.2 mg/dL, the CRE (6 h) was 0.1 mg/dL and the Ca (6 h) was 10.6 mg/dL. The Cl (6 h) was 104 meq/L, the DBIL (6 h) was 0.012 mg/dL and the GLC (6 h) was 176.8 mg/dL. For the same molecule, the IP (6 h) was 10 mg/dL, the K (6 h) was 4 meq/L and the LDH (6 h) was 180 IU/L. For the same molecule, the Na (6 h) was 138.8 meq/L, the PL (6 h) was 140.4 mg/dL and the RALB (6 h) was 2.9 g/dL. For the same molecule, the TBIL (6 h) was 0.046 mg/dL, the TC (6 h) was 68.4 mg/dL and the TG (6 h) was 43.4 mg/dL. The TP (6 h) was 5.4 g/dL, the gamma-GTP (6 h) was 1.4 IU/L and the TERMINAL_BW (9 h) was 213.4 g. The APTT (9 h) was 23.1 s, the Bas (9 h) was 0% and the Eos (9 h) was 1%. For the same molecule, the Fbg (9 h) was 304.8 mg/dL, the Hb (9 h) was 13.5 g/dL and the Ht (9 h) was 40.8%. For the same molecule, the Lym (9 h) was 76.2%, the MCH (9 h) was 20.8 pg and the MCHC (9 h) was 33.1%. It also gave an MCV (9 h) of 62.8 fL, a Mono (9 h) of 2.6% and a Neu (9 h) of 19.8%. The PT (9 h) was 15.4 s, the Plat (9 h) was 121.3 x10_4/uL and the RBC (9 h) was 650.4 x10_4/ul. The Ret (9 h) was 7.2%, the WBC (9 h) was 67.2 x10_2/uL and the KIDNEY_L (9 h) was 1 g. The KIDNEY_R (9 h) was 1 g, the KIDNEY_TOTAL (9 h) was 2 g and the LIVER (9 h) was 8.5 g. It also gave an A/G (9 h) of 1.2, an ALP (9 h) of 1688.2 IU/L and an ALT (9 h) of 40.4 IU/L. It also gave an AST (9 h) of 73 IU/L, a BUN (9 h) of 9 mg/dL and a CRE (9 h) of 0.1 mg/dL. The Ca (9 h) was 10.5 mg/dL, the Cl (9 h) was 105.8 meq/L and the DBIL (9 h) was 0 mg/dL. It also gave a GLC (9 h) of 173.8 mg/dL, an IP (9 h) of 9.7 mg/dL and a K (9 h) of 4.2 meq/L. For the same molecule, the LDH (9 h) was 169.2 IU/L, the Na (9 h) was 139.2 meq/L and the PL (9 h) was 144.4 mg/dL. The RALB (9 h) was 3 g/dL, the TBIL (9 h) was 0.036 mg/dL and the TC (9 h) was 69.2 mg/dL. It also gave a TG (9 h) of 54.4 mg/dL, a TP (9 h) of 5.5 g/dL and a gamma-GTP (9 h) of 1 IU/L. For the same molecule, the TERMINAL_BW (24 h) was 227.7 g, the APTT (24 h) was 20.2 s and the Bas (24 h) was 0%. The Eos (24 h) was 1%, the Fbg (24 h) was 337.4 mg/dL and the Hb (24 h) was 13.9 g/dL. For the same molecule, the Ht (24 h) was 41.8%, the Lym (24 h) was 85.4% and the MCH (24 h) was 20.9 pg. For the same molecule, the MCHC (24 h) was 33.2%, the MCV (24 h) was 62.8 fL and the Mono (24 h) was 3%. The Neu (24 h) was 8.8%, the PT (24 h) was 16.3 s and the Plat (24 h) was 125.6 x10_4/uL. For the same molecule, the RBC (24 h) was 666 x10_4/ul, the Ret (24 h) was 7.1% and the WBC (24 h) was 93.9 x10_2/uL. For the same molecule, the KIDNEY_L (24 h) was 1 g, the KIDNEY_R (24 h) was 1 g and the KIDNEY_TOTAL (24 h) was 2 g. For the same molecule, the LIVER (24 h) was 9.4 g, the A/G (24 h) was 1.2 and the ALP (24 h) was 1448.8 IU/L. The ALT (24 h) was 34 IU/L, the AST (24 h) was 66.4 IU/L and the BUN (24 h) was 16.8 mg/dL. The CRE (24 h) was 0.1 mg/dL, the Ca (24 h) was 10.6 mg/dL and the Cl (24 h) was 107.6 meq/L. The DBIL (24 h) was 0 mg/dL, the GLC (24 h) was 197.8 mg/dL and the IP (24 h) was 9 mg/dL. For the same molecule, the K (24 h) was 4.3 meq/L, the LDH (24 h) was 209.6 IU/L and the Na (24 h) was 142.8 meq/L. It also gave a PL (24 h) of 139.6 mg/dL, an RALB (24 h) of 3 g/dL and a TBIL (24 h) of 0.024 mg/dL. The TC (24 h) was 86.6 mg/dL, the TG (24 h) was 53.2 mg/dL and the TP (24 h) was 5.6 g/dL. The gamma-GTP (24 h) was 1.2 IU/L.
